# Experimental data taken from article PMC11306024, “Novel metabolite madeirone and neomarinone extracted from Streptomyces aculeoletus as marine antibiofilm and antifouling agents” (Frontiers in Chemistry, 2024).
# Read-outs that look alike come from different tables or passages of the source.
# How the values were obtained:
# Oral rat = details: from reported data; ref Tišler and Zagorc-končan, 2003; cited from earlier work
# Daphnia magna [1] = details: ref Tišler and Zagorc-končan, 2003; cited from earlier work
# Fish Orcorhynchus mykiss = details: ref Tišler and Zagorc-končan, 2003; cited from earlier work
# [2] = tested on: Alga Scenedesmus quadricauda; details: cited from earlier work
# Oral rat/rabit = tested on: Oral rat/rabit; design: method as in Tišler and Zagorc-končan, 2003; details: ref Tišler and Zagorc-končan, 2003; cited from earlier work
# Daphnia magna [3] = details: cited from earlier work
# M. hydrocarbonoclasticus [4] = assay: Antibiofilm activity (inhibition of biofilm formation); type: cell-based, Marinobacter hydrocarbonoclasticus DSM 8798; details: 0.16 µg/mL, 24 h, positive control
# Description: (§1) To assess antimicrofouling activity, we selected five marine bacterial species as models: Marinobacter hydrocarbonoclasticus DSM 8798 (ATCC 49840), C. marina DSM 4741, Phaeobacter inhibens DSM 17,395, Pseusooceanicola batsensis DSM 15,984, and Micrococcus luteus DSM 20030 (ATCC 4698) ([Michael et al., 2016]). These strains, sourced from DSMZ (Leibniz Institute DSMZ—German Collection of Microorganisms and Cell Cultures), were cultured in liquid marine broth (Carl Roth GmbH, Karlsruhe, Germany) with agitation at 180 rpm or on agar-supplemented marine broth. Incubation temperatures were set at 28°C for M. hydrocarbonoclasticus and Cobetia marina, 30°C for P. inhibens and P. batsensis, while M. luteus was maintained at 37°C in Brain Heart Infusion broth (BHI, Becton Dickinson, GmbH, Heidelberg, Germany) under similar agitation conditions.
# (§2) The antibiofilm potential of compounds (1) and (2) against the five marine bacterial species was investigated in 96-well polystyrene flat-bottom microplates (Nunclon Delta Surface, Thermo Scientific, Roskilde, Denmark), as described previously ([Bauermeister et al., 2019]; [Pereira et al., 2020]). In the initial screening, bacterial overnight cultures were diluted to an OD600 of 0.2 and incubated statically at appropriate temperatures. The cultures were tested at 31.25, 15.60, 7.81, 3.91, 1.95, 0.98 μg/mL concentrations (2-fold serial dilutions) of compounds (1) and (2), solubilized in DMSO, or left untreated. After 24 h (M. hydrocarbonoclasticus, C. marina) or 48 h (P. batsensis, P. inhibens, M. luteus) incubation, OD600 was measured. The planktonic cells and media were discarded, and the wells were washed twice with deionized water. Biofilms were fixed, stained, and quantified by measuring the OD600 after solubilization with acetic acid. Biofilm inhibition percentages were calculated relative to untreated bacterial species, using DMSO as a negative control and CuSO4 (0.16 μg/mL), as a positive control. All assays were performed in triplicate, and the results represent the mean and standard error of the mean (SEM). Statistical analysis was conducted using GraphPad Prism 8.0.2, employing one-way ANOVA followed by Dunnett’s multiple comparisons test against the negative control.
# M. hydrocarbonoclasticus [5] = assay: Antibacterial activity (growth inhibition, OD600); type: cell-based, Marinobacter hydrocarbonoclasticus DSM 8798; details: 0.16 µg/mL, 24 h, positive control
# Description: as §1
# (§3) The antibacterial efficacy of compounds (1) and (2) was assessed in 96-well polystyrene flat-bottom microplates (Nunclon Delta Surface, Thermo Scientific, Roskilde, Denmark) following established procedures ([Bauermeister et al., 2019]). In the initial screening, bacterial overnight cultures were diluted to an optical density (OD600nm) of 0.2 and incubated statically at appropriate temperatures. The cultures were treated with the following final concentrations per well: 31.25, 15.60, 7.81, 3.91, 1.95, and 0.98 μg/mL (2-fold serial dilutions) of the compounds, solubilized in DMSO, or left untreated. After 24 h (M. hydrocarbonoclasticus, C. marina) or 48 h (P. batsensis, P. inhibens, M. luteus) incubation, optical density at 600 nm (OD600) was measured using a Molecular Devices Spectra Max 190. Growth inhibition percentages were calculated relatively to untreated bacterial species, using DMSO as a negative control. CuSO4 (0.16 μg/mL), a recognized antifouling agent, was used as positive control. All assays were conducted in triplicate, and the results represent the mean and standard error of the mean (SEM). Statistical analysis was carried out using GraphPad Prism 8.0.2 (San Diego, CA, United States), employing one-way ANOVA followed by Dunnett’s multiple comparisons test against the negative control.
# P. inhibens [6] = assay: Antibacterial activity (growth inhibition, OD600); type: cell-based, Phaeobacter inhibens DSM 17395; details: 0.16 µg/mL, 48 h, positive control
# Description: as §1, §3
# M. luteus [7] = assay: Antibacterial activity (growth inhibition, OD600); type: cell-based, Micrococcus luteus DSM 20030; details: 0.16 µg/mL, 48 h, positive control
# Description: as §1, §3
# P. batsensis [8] = assay: Antibiofilm activity (inhibition of biofilm formation); type: cell-based, Pseudo-oceanicola batsensis DSM 15984; details: 0.16 µg/mL, 48 h, positive control
# Description: as §1, §2
# P. batsensis [9] = assay: Antibacterial activity (growth inhibition, OD600); type: cell-based, Pseudo-oceanicola batsensis DSM 15984; details: 0.16 µg/mL, 48 h, positive control
# Description: as §1, §3
# M. luteus [10] = assay: Antibiofilm activity (inhibition of biofilm formation); type: cell-based, Micrococcus luteus DSM 20030; details: 0.16 µg/mL, 48 h, positive control
# Description: as §1, §2
# C. marina [11] = assay: as above; type: cell-based, Cobetia marina DSM 4741; details: 0.16 µg/mL, 24 h, positive control
# Description: as §1, §2
# P. inhibens [12] = assay: as above; type: cell-based, Phaeobacter inhibens DSM 17395; details: 0.16 µg/mL, 48 h, positive control
# Description: as §1, §2
# C. marina [13] = assay: Antibacterial activity (growth inhibition, OD600); type: cell-based, Cobetia marina DSM 4741; details: 0.16 µg/mL, 24 h, positive control
# Description: as §1, §3
# M. edulis = tested on: M. edulis; design: method as in Davies et al., 1997; details: against M. edulis; ref Davies et al., 1997; cited from earlier work
# Aliivibrio fischeri = assay: Inhibition of bioluminescence (ISO 11348-3 micro adaptation); type: cell-based; details: 100 µg/mL
# Description: The in vivo evaluation of compounds (1) and (2) for acute toxicity was performed towards marine bacterium Aliivibrio fischeri, and planktonic crustacean Daphnia magna. The chronic ecotoxicity tests were evaluated using algae Pseudokirchneriella subcapitata and Phaeodactylum tricornutum.
# The inhibition of bioluminescence of the marine bacterium A. fischeri, were studied following a micro adaptation of the standard procedure ISO 11348-3 (“Water Quality-Determination of the inhibitory effect of water samples on the light emission of Vibrio fischeri - Luminescent bacteria test–using freeze-dried bacteria method”). Briefly, frozen lyophilized bacterial cells (Abraxis, Warminster, PA, United States) were reconstituted in Reconstitution Solution, supplied by the manufacturer of the Abratox kit (Abraxis). Madeirone (1) and neomarinone (2) were dissolved in DMSO and tested at the concentrations of 100, 50, 25, 12.5, 6.25, 3.13, and 1.56 μg/mL. The emitted luminescence was measured using a luminometer at time 0 min and at different exposure times (5, 15 and 30 min) and the percentage of inhibition of bioluminescence was determined. Each experiment was performed in duplicate and the results of three independent experiments with <10% SD are presented. Phenol was used as a positive control.
molecule,measurement,setting,value
"[As] [compound 9, arsenic]",ATE category,Oral rat,"2 (category 2, 5 < ATE ≤50 mg/kg, also classified as “Fatal if swallowed”)"
same,Daphnia magna 48 h LC50,Daphnia magna [1],2.5 µg/mL
same,Fish Orcorhynchus mykiss 96 h LC50,Fish Orcorhynchus mykiss,15.3 µg/mL
same,Alga Scenedesmus quadricauda 21 days NOEC,"[2]; footnote d as printed, ref Tišler and Zagorc-končan, 2003",34.5 mg/L
same,Oral rat/rabit LD50,Oral rat/rabit,12 mg/kg
same,Daphnia magna 21 days NOEC,"Daphnia magna [3]; ref Tišler and Zagorc-končan, 2003",1.85 mg/L
"O=S(=O)([O-])[O-].[Cu+2] [CuSO4, reference compound]",Biofilm inhibition (%) M. hydrocarbonoclasticus,M. hydrocarbonoclasticus [4],no observable inhibition and N.I.
same,Growth inhibition (%) M. hydrocarbonoclasticus,M. hydrocarbonoclasticus [5],35.8 ± 0.8 %
same,Growth inhibition (%) P. inhibens,P. inhibens [6],66.2 ± 5.6 %
same,Growth inhibition (%) M. luteus,M. luteus [7],No inhibition and N.I.
same,Biofilm inhibition (%) P. batsensis,P. batsensis [8],41.4 ± 0.9%
same,Growth inhibition (%) P. batsensis,P. batsensis [9],44.8 ± 6.3 %
same,Biofilm inhibition (%) M. luteus,M. luteus [10],no observable inhibition and N.I.
same,Biofilm inhibition (%) C. marina,C. marina [11],no observable inhibition and N.I.
same,Biofilm inhibition (%) P. inhibens,P. inhibens [12],12.9 ± 6.4%
same,Growth inhibition (%) C. marina,C. marina [13],No inhibition and N.I.
ivermectin,EC50,M. edulis,0.4 µg/mL
"[Cu] [compound 8, copper]",ATE category,Oral rat,"3 (category 3, 50 < ATE ≤300 mg/kg, labeled as (“Toxic if swallowed”))"
same,Daphnia magna 48 h LC50,Daphnia magna [1],0.030 µg/mL
same,Fish Orcorhynchus mykiss 96 h LC50,Fish Orcorhynchus mykiss,0.48 µg/mL
same,Alga Scenedesmus quadricauda 21 days NOEC,[2],0.18 mg/L
same,Oral rat/rabit LD50,Oral rat/rabit,140 mg/kg
same,Daphnia magna 21 days NOEC,Daphnia magna [3]; in vivo,0.015 mg/L
"Oc1ccccc1 [Phenol, reference compound]",Inhibition (%) A. fischeri (bioluminescence),Aliivibrio fischeri,19.8%
